Assay results reported in patent publication US10670605B2, “Cysteine reactive probes and uses thereof” (The Scripps Research Institute, priority 2015, dated 2020).

Experiments:
Assay in all cases: Competitive isoTOP-ABPP, cell lysates
Assay type in all cases: binding
ACAT1 C196 (P24752) = target: T1, ACAT1 C196 (P24752) (Homo sapiens, UniProt P24752); conditions: for isoTOP-ABPP reactivity profile ratio, P24752_C196 / isoTOP-ABPP reactivity ratio, P24752_C196: 500 μm; for isoTOP-ABPP ratio, P24752_C196 / R value (DMSO/fragment): 500 μM; for isoTOP-ABPP ratio, P24752_C196: 231
T1 sequence (P24752 34-427): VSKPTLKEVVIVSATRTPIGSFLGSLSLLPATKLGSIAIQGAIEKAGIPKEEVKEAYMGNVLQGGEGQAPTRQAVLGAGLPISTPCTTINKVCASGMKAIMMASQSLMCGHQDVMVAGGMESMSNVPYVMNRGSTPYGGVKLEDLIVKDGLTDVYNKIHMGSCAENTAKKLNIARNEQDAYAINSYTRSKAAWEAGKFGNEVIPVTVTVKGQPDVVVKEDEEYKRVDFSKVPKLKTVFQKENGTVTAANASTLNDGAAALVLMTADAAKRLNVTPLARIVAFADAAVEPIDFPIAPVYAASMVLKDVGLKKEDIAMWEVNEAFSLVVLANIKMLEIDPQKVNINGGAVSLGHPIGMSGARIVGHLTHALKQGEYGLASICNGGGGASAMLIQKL

PCK2 C306 (Q16822) = target: T2, PCK2 C306 (Q16822) (Homo sapiens, UniProt Q16822)
T2 sequence (Q16822 33-640): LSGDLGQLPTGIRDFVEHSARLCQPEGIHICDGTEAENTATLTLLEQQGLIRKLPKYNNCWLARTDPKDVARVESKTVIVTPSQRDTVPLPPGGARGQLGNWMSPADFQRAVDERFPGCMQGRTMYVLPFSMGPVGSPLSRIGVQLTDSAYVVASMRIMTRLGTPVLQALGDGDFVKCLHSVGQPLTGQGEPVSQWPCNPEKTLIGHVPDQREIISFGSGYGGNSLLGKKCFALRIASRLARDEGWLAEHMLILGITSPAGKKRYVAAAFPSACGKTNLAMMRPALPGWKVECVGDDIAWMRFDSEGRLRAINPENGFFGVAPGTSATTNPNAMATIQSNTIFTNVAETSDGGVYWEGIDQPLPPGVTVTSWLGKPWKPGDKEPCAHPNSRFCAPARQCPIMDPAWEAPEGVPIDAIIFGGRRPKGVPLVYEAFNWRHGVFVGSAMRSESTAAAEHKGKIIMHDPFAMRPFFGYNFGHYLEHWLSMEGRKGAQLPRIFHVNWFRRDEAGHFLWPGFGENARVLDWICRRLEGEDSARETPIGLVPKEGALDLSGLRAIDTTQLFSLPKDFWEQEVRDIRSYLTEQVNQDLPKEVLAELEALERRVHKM

ACAT1 C413 (P24752) = target: T3, ACAT1 C413 (P24752) (Homo sapiens, UniProt P24752); conditions: for isoTOP-ABPP reactivity profile ratio, P24752_C413 / isoTOP-ABPP reactivity ratio, P24752_C413: 500 μm; for isoTOP-ABPP ratio P24752_C413: invitro, 231
T3 sequence (P24752 34-427): T1 sequence (P24752 34-427)

ACAT1 C126 (P24752) = target: T4, ACAT1 C126 (P24752) (Homo sapiens, UniProt P24752); conditions: for isoTOP-ABPP reactivity profile ratio, P24752_C126 / isoTOP-ABPP reactivity ratio, P24752_C126: 500 μm; for isoTOP-ABPP ratio, P24752_C126: invitro, 231
T4 sequence (P24752 34-427): T1 sequence (P24752 34-427)

UBE2S C118 (Q16763) = target: T5, UBE2S C118 (Q16763) (Homo sapiens, UniProt Q16763); conditions: for R value (DMSO/fragment): 500 μM
T5 sequence (Q16763 1-222): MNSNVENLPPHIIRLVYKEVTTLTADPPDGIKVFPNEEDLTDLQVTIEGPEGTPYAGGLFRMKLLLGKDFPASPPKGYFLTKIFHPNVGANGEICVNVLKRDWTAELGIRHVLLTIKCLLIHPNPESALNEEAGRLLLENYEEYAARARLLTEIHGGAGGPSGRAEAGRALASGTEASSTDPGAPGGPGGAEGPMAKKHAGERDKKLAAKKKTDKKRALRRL

SMARCC2 C145 (Q8TAQ2) = SMARCC2 C145 (Q8TAQ2) (Homo sapiens, UniProt Q8TAQ2); conditions: for R value (DMSO/fragment): 500 μM
UCHL3 C95 (P15374) = target: T6, UCHL3 C95 (P15374) (Homo sapiens, UniProt P15374)
T6 sequence (P15374 1-230): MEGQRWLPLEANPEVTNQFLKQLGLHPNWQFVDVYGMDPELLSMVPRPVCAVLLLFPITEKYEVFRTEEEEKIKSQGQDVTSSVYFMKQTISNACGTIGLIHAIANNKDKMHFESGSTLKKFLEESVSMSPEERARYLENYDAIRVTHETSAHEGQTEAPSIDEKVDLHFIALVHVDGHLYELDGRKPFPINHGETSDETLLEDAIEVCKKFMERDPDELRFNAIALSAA

SMARCC2 C145 (Q8TAQ2), sequence (Q8TAQ2 whole entry, the tested form may be a part): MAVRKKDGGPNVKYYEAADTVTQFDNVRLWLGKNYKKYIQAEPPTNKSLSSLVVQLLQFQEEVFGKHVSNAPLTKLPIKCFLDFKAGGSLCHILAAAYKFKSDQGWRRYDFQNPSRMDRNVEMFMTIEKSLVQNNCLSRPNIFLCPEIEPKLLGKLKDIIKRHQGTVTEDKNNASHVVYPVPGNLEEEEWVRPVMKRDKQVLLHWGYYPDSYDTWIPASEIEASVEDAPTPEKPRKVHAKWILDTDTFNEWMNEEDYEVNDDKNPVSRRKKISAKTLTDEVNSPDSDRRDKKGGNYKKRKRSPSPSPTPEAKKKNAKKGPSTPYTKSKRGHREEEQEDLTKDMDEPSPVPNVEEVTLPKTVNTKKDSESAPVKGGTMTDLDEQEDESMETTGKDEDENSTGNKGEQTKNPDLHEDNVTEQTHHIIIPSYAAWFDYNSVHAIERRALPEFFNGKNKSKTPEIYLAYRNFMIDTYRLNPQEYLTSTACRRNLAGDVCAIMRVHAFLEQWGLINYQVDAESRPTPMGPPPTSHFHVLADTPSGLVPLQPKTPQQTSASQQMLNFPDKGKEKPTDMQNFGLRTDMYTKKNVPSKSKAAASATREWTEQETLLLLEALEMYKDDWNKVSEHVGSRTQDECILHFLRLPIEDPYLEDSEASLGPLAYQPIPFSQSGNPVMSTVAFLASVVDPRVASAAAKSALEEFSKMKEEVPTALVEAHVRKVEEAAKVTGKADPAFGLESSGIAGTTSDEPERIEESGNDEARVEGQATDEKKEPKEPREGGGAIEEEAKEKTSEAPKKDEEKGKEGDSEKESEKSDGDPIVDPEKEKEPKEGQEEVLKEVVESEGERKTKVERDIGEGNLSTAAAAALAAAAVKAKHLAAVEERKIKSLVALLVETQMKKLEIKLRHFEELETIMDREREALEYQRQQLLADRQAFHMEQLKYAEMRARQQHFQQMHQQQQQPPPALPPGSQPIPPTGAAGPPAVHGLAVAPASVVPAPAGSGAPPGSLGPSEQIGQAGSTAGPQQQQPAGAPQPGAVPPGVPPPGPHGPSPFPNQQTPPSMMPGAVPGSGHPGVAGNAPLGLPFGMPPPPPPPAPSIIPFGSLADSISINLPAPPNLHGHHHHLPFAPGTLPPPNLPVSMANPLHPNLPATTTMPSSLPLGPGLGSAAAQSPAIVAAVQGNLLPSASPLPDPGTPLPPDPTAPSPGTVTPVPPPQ

CC1CCc2ccccc2N1C(=O)CCl (stereo not shown) [compound 45]
isoTOP-ABPP reactivity profile ratio, P24752_C196 (ACAT1 C196 (P24752); in-vitro_ramos_231): 20.0
isoTOP-ABPP reactivity profile ratio, Q16822_C306 (PCK2 C306 (Q16822); 500 μm, in-vitro_ramos_231): 3.3
isoTOP-ABPP reactivity profile ratio, P24752_C413 (ACAT1 C413 (P24752); in-vitro_ramos_231): 20.0
isoTOP-ABPP reactivity profile ratio, P24752_C126 (ACAT1 C126 (P24752); in-vitro_ramos_231): 20.0

C=CC(=O)N(Cc1cccnc1)c1ccc(Oc2ccccc2)c(C(F)(F)F)c1 [compound 15]
isoTOP-ABPP ratio, P24752_C196 (ACAT1 C196 (P24752); invitro): 0.9
isoTOP-ABPP ratio (reactivity profile), P24752_C196 (ACAT1 C196 (P24752); 500 μm in-vitro ramos): 1.6
isoTOP-ABPP ratio (reactivity profile), Q16763_C118 (UBE2S C118 (Q16763); 500 μm in-vitro ramos): 1.2
isoTOP-ABPP ratio (reactivity profile), Q8TAQ2_C145 (SMARCC2 C145 (Q8TAQ2); 500 μm in-vitro ramos): 1.2
isoTOP-ABPP ratio (reactivity profile), P15374_C95 (UCHL3 C95 (P15374); 500 μm in-vitro ramos): 0.7
isoTOP-ABPP ratio P24752_C413 (ACAT1 C413 (P24752); 500 μM): 1.2
isoTOP-ABPP ratio (reactivity profile), P24752_C413 (ACAT1 C413 (P24752); 500 μm in-vitro ramos): 0.9
isoTOP-ABPP ratio, P24752_C126 (ACAT1 C126 (P24752); 500 μM): 0.8

COc1ccc2c(c1)CCCN2C(=O)CCl [compound 2]
R value (DMSO/fragment) (ACAT1 C196 (P24752); in vitro, MDA-MB-231): 12.4
R value (DMSO/fragment) (ACAT1 C196 (P24752); invitro, ramos): 9.3
R value (DMSO/fragment) (UBE2S C118 (Q16763); in vitro, MDA-MB-231): 4.2
R value (DMSO/fragment) (UBE2S C118 (Q16763); invitro, ramos): 6.9
R value (DMSO/fragment) (SMARCC2 C145 (Q8TAQ2); in vitro, MDA-MB-231): 8.5
R value (DMSO/fragment) (SMARCC2 C145 (Q8TAQ2); invitro, ramos): 14.0
R value (DMSO/fragment) (UCHL3 C95 (P15374); 500 μM, invitro, ramos): 1.8
R value (DMSO/fragment) (ACAT1 C413 (P24752); 500 μM, in vitro, MDA-MB-231): 18.1
R value (DMSO/fragment) (ACAT1 C126 (P24752); 500 μM, in vitro, MDA-MB-231): 20.0

CNS(=O)(=O)C=Cc1ccc2c(ccn2Cc2ccccc2)c1 [compound 6]
isoTOP-ABPP ratio, P24752_C196 (ACAT1 C196 (P24752); invitro): 1.0
isoTOP-ABPP ratio, P15374_C95 (UCHL3 C95 (P15374); 500 μM, invitro, 231): 1.1
isoTOP-ABPP ratio P24752_C413 (ACAT1 C413 (P24752); 500 μM): 1.1
isoTOP-ABPP ratio, P24752_C126 (ACAT1 C126 (P24752); 500 μM): 0.9

C=CC(=O)N1CCC(c2noc3ccc(F)cc23)CC1 [compound 37]
isoTOP-ABPP reactivity ratio, P24752_C196 (ACAT1 C196 (P24752); in-vitro_ramos): 1.0
isoTOP-ABPP reactivity ratio, Q16822_C306 (PCK2 C306 (Q16822); 500 μm, in-vitro_ramos): 1.0
isoTOP-ABPP reactivity ratio, P24752_C413 (ACAT1 C413 (P24752); in-vitro_ramos): 0.9
isoTOP-ABPP reactivity ratio, P24752_C126 (ACAT1 C126 (P24752); in-vitro_ramos): 0.9

C=CC(=O)Nc1cc(C)c(Br)cc1C [compound 40]
isoTOP-ABPP reactivity ratio, P24752_C196 (ACAT1 C196 (P24752); in-vitro_ramos_231): 0.8
isoTOP-ABPP reactivity ratio, Q16763_C118 (UBE2S C118 (Q16763); 500 μm, in-vitro_ramos): 0.8
isoTOP-ABPP reactivity ratio, Q16763_C118 (UBE2S C118 (Q16763); 500 μm, in-vitro_ramos_231): 0.9
isoTOP-ABPP reactivity ratio, Q8TAQ2_C145 (SMARCC2 C145 (Q8TAQ2); 500 μm, in-vitro_ramos): 1.1
isoTOP-ABPP reactivity ratio, Q8TAQ2_C145 (SMARCC2 C145 (Q8TAQ2); 500 μm, in-vitro_ramos_231): 0.9
isoTOP-ABPP reactivity ratio, P15374_C95 (UCHL3 C95 (P15374); 500 μm, in-vitro_ramos): 0.9
isoTOP-ABPP reactivity ratio, P24752_C413 (ACAT1 C413 (P24752); in-vitro_ramos_231): 0.9
isoTOP-ABPP reactivity ratio, P24752_C126 (ACAT1 C126 (P24752); in-vitro_ramos_231): 0.9

O=C(CCl)Nc1ccccc1C1CCCCCC1 [compound 35]
isoTOP-ABPP reactivity ratio, P24752_C196 (ACAT1 C196 (P24752); in-vitro_ramos): 1.4
isoTOP-ABPP reactivity ratio, P24752_C196 (ACAT1 C196 (P24752); in-vitro_ramos_231): 0.9
isoTOP-ABPP reactivity ratio, Q16822_C306 (PCK2 C306 (Q16822); 500 μm, in-vitro_ramos): 1.0
isoTOP-ABPP reactivity ratio, Q16822_C306 (PCK2 C306 (Q16822); 500 μm, in-vitro_ramos_231): 0.9
isoTOP-ABPP reactivity ratio, Q8TAQ2_C145 (SMARCC2 C145 (Q8TAQ2); 500 μm, in-vitro_ramos_231): 0.9
isoTOP-ABPP reactivity ratio, P24752_C413 (ACAT1 C413 (P24752); in-vitro_ramos): 1.3
isoTOP-ABPP reactivity ratio, P24752_C126 (ACAT1 C126 (P24752); in-vitro_ramos): 10.4

O=C(CCl)NC1C(O)OC(CO)C(O)C1O (mixture of isomers) [compound 44]
isoTOP-ABPP reactivity profile ratio, P24752_C196 (ACAT1 C196 (P24752); in-vitro_ramos_231): 0.8
isoTOP-ABPP reactivity profile ratio, Q16763_C118 (UBE2S C118 (Q16763); 500 μm, in-vitro_ramos_231): 0.8
isoTOP-ABPP reactivity profile ratio, Q8TAQ2_C145 (SMARCC2 C145 (Q8TAQ2); 500 μm, in-vitro_ramos_231): 1.0
isoTOP-ABPP reactivity profile ratio, P15374_C95 (UCHL3 C95 (P15374); 500 μm, in-vitro_ramos_231): 0.8
isoTOP-ABPP reactivity profile ratio, P24752_C413 (ACAT1 C413 (P24752); in-vitro_ramos_231): 0.8
isoTOP-ABPP reactivity profile ratio, P24752_C126 (ACAT1 C126 (P24752); in-vitro_ramos_231): 0.8

O=C(CCl)N1CCN(CC(=O)N2CCOCC2)CC1 [compound 29]
isoTOP-ABPP ratio (reactivity profile), P24752_C196 (ACAT1 C196 (P24752); 500 μm in-vitro ramos): 1.0
isoTOP-ABPP ratio (reactivity profile), P24752_C196 (ACAT1 C196 (P24752); 500 μm in-vitro ramos_231): 1.3
isoTOP-ABPP ratio (reactivity profile), Q16822_C306 (PCK2 C306 (Q16822); 500 μm in-vitro ramos): 0.5
isoTOP-ABPP ratio (reactivity profile), Q16822_C306 (PCK2 C306 (Q16822); 500 μm in-vitro ramos_231): 1.1
isoTOP-ABPP ratio (reactivity profile), Q8TAQ2_C145 (SMARCC2 C145 (Q8TAQ2); 500 μm in-vitro ramos_231): 1.0
isoTOP-ABPP ratio (reactivity profile), P15374_C95 (UCHL3 C95 (P15374); 500 μm in-vitro ramos): 1.0
isoTOP-ABPP ratio (reactivity profile), P15374_C95 (UCHL3 C95 (P15374); 500 μm in-vitro ramos_231): 0.9
isoTOP-ABPP ratio (reactivity profile), P24752_C413 (ACAT1 C413 (P24752); 500 μm in-vitro ramos): 0.7
isoTOP-ABPP ratio (reactivity profile), P24752_C413 (ACAT1 C413 (P24752); 500 μm in-vitro ramos_231): 1.3
isoTOP-ABPP ratio (reactivity profile), P24752_C126 (ACAT1 C126 (P24752); 500 μm in-vitro ramos): 0.8
isoTOP-ABPP ratio (reactivity profile), P24752_C126 (ACAT1 C126 (P24752); 500 μm in-vitro ramos_231): 1.1
